Here are results for four molecules from US11535585B2, “Nitrobenzyl derivatives of anti-cancer agents” (OBI PHARMA, INC., priority 2015, dated 2022).

Usually IC50 stands for the point on the concentration scale where inhibition reaches its midpoint.

The conditions of assay [1]: tested as water soluble phosphate prodrug PR 104P; cited from earlier work.
The next assay deals with T1, AKR1C3 (Homo sapiens, UniProt P42330).
T1 sequence (P42330 1-323): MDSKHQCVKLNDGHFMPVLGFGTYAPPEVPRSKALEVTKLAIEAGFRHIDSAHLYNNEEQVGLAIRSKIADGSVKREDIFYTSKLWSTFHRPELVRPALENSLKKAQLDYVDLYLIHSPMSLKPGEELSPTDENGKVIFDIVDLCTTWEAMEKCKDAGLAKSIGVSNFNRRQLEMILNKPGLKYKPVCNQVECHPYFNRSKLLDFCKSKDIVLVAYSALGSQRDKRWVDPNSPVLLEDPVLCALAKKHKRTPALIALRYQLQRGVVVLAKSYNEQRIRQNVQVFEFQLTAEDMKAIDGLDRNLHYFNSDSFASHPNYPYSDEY
The settings on record: cited from earlier work.

The test system of assay [2] is H460 non cell lung cancer human tumor cell line. Nature of the assay: In vitro human tumor cell line cytotoxicity / proliferation assay (AlamarBlue) with and without AKR1C3 inhibitor. In kind it is cell-based. Here is the method: In vitro proliferation data on the H460 […] human tumor cell line is determined based on IC50 measured by exposure of compounds at various concentrations for 2 hrs followed by a wash step and addition of fresh media followed by growth and cell viability staining and comparison to a media only treated control.
Specifically, exponentially growing cells are seeded at a density of 4×10^3 cells per well in a 96 well plate and incubated at 37° C. in 5% CO2, 95% air and 100% relative humidity for 24 hours prior to addition of test compounds. Compounds are solubilized in 100% DMSO at 200 times the desired final test concentration. At the time of drug addition, compounds are further diluted to 4 times the desired final concentration with complete medium. Aliquots of 50 μl of compound at specified concentrations are added to microtiter wells already containing 150 μl of medium, resulting in the final drug concentration reported. After drug addition the plates are incubated 72 hrs at 37° C., 5% CO2, 95% air and 100% relative humidity. At the end of this incubation, the viable cells are quantified using the AlamarBlue assay. The drug concentration resulting in growth inhibition of 50% (IC50) is calculated using Prism software (Irvine, Calif.).
Cell proliferation were performed in the presence (3 micromolar) and absence of a specific inhibitor of the AKR 1C3 enzyme. The case of added inhibitor was added to cell culture 2 hours prior to compound treatment. The inhibitor used was compound 36 in Flanagan, et al, Bioorganic and Medicinal Chemistry (2014) p 962-977.
Proliferation data of TH compounds in H460 in the presence/absence of the specific AKR 1C3 inhibitor
(In general: Alamar Blue is a resazurin reagent that responds to reducing activity.)

Setting [3] is: NCI-H460, H460 cells, absence of specific AKR 1C3 inhibitor, read-out: IC50 (without inhibitor).
Where [4] appears, read: NCI-H460, H460 cells, presence of 3 micromolar specific AKR 1C3 inhibitor added 2 hours prior to compound treatment, read-out: IC50 (with inhibitor).

Read-outs that look alike come from different tables or passages of the source.

Take `CS(=O)(=O)OCCN(CCBr)c1c(C(=O)NCCO)cc([N+](=O)[O-])cc1[N+](=O)[O-]` [PR 104]: in assay [1], the “efficacy in clinical trials” value was “ineffective”. Also, the “substrate for AKR1C3” value on AKR1C3 is listed as “weak substrate”.

Consider `CC(=O)O[C@H]1C(=O)[C@@]2(C)[C@H]([C@H](OC(=O)c3ccccc3)[C@]3(O)C[C@H](OC(=O)[C@H](OC(=O)N(C)CCN(C)C(=O)OCc4ccc([N+](=O)[O-])c(Oc5ccc6ncccc6c5)c4)[C@@H](NC(=O)c4ccccc4)c4ccccc4)C(C)=C1C3(C)C)[C@]1(OC(C)=O)CO[C@@H]1C[C@@H]2O` [TH3047], for which the results for the IC50 in assay [2] (setting [3]) and in assay [2] (setting [4]) were 30 nM and 30000 nM, respectively.

As for `CCN(CCCCBr)P(=O)(OCc1ccc([N+](=O)[O-])c(Oc2ccc(-c3ccccc3)cc2)c1)OCC1OC(n2ccc(N)nc2=O)C(F)(F)C1O` (stereo not shown) [TH3057], the IC50 in assay [2] (NCI-H460, read-out: IC50 (without inhibitor)) stood at 200 nM.

Take `CC(=O)O[C@H]1C(=O)[C@@]2(C)[C@H]([C@H](OC(=O)c3ccccc3)[C@]3(O)C[C@H](OC(=O)[C@H](OC(=O)N(C)CCN(C)C(=O)OC(C)c4ccc([N+](=O)[O-])c(Oc5ccc6ncccc6c5)c4)[C@@H](NC(=O)c4ccccc4)c4ccccc4)C(C)=C1C3(C)C)[C@]1(OC(C)=O)CO[C@@H]1C[C@@H]2O` (stereo partly shown) [TH3054]: the IC50 in assay [2] (setting [3]) amounted to 30 nM; in assay [2] (setting [4]) it was 91000 nM.
